The text below walks through data of patent publication US6716834B2, “Thiochromane derivatives and their use as thrombin inhibitors” (AstraZeneca AB, priority 2000, dated 2004).

Bounds are passed on as bounds.

The target in one data set is T1, Human thrombin (Homo sapiens, UniProt P00734).
T1 construct: purchased Sigma Chem. Co or Hematologic Technologies T 6769
As to the kind of experiment: Test A: Determination of Thrombin Clotting Time (TT). It is filed as biochemical. The conditions noted are these: concentration of inhibitor that doubles the thrombin clotting time in plasma. As for the experimental part:
Determination of Thrombin Clotting Time (TT)
The inhibitor solution (25 ? L) is incubated with plasma (25 ? L) for three minutes. Human thrombin (T 6769; Sigma Chem. Co or Hematologic Technologies) in buffer solution, pH 7.4 (25 ? L, 4.0 NIH units/mL), is then added and the clotting time measured in an automatic device (KC 10; Amelung).
The thrombin clotting time (TT) is expressed as absolute values (seconds) as well as the ratio of TT without inhibitor (TT0) to TT with inhibitor (TTi). The latter ratios (range 1-0) are plotted against the concentration of inhibitor (log transformed) and fitted to sigmoidal dose-response curves according to the equation
where: a=maximum range, i.e. 1; s=slope of the dose-response curve; and IC50=the concentration of inhibitor that doubles the clotting time. The calculations are processed on a PC using the software program GraFit Version 3, setting equation equal to: Start at 0, define end=1 (Erithacus Software, Robin Leatherbarrow, Imperial College of Science, London, UK).

Data set [1] is described as follows: Test G: Metabolic Activation of Prodrug Compounds in vitro. In kind it is in vitro ADME, human or rat. As for the experimental part:
Metabolic Activation of Prodrug Compounds in vitro
Prodrug compounds of formula IA are incubated at 37° C. with liver microsomes or 10 000 g (referring to the centrifuge speed) supernatant fractions (i.e. s9 fraction) prepared from human or rat liver homogenate. The total protein concentration in the incubations are 1 or 3 mg/mL dissolved in 0.05 mol/L TRIS buffer (pH 7.4), and with the cofactors NADH (2.5 mmol/L) and NADPH (0. 8 mmol/L) present. The total volume of the incubate is 1.2 mL. The initial prodrug concentrations are 5 or 10 ? mol/L. Samples are collected from the incubate at regular is intervals more than 60 minutes after the start of the incubations. Samples (25 ? L) from the incubate are mixed with an equal volume of human or rat plasma and an appropriate amount of thrombin, and the clotting time (i.e. thrombin time) is measured on a coagulometer (KC 10; Amelung). The amount of “active” thrombin inhibitor formed is estimated by the use of standard curves relating the thrombin time in pooled citrated human or rat plasma to known concentrations of the corresponding “active thrombin inhibitor”.
The amount of “active” thrombin inhibitor is alternatively, or in addition to the above-mentioned method, estimated by the use of LC-MS.

Data set [2] is described as follows: Test E: Determination of Thrombin Time ex vivo (bioavailability of active inhibitor after prodrug administration). In kind it is in vivo. The note with it: rat. The text has this: Determination of Thrombin Time ex vivo
The inhibition of thrombin after oral or parenteral administration of the compounds of formula I, dissolved in ethanol:Solutol3:water (5:5:90), is examined in conscious rats which, one or two days prior to the experiment, are equipped with a catheter for blood sampling from the carotid artery. On the experimental day blood samples are withdrawn at fixed times after the administration of the compound into plastic tubes containing 1 part sodium citrate solution (0.13 mol per L) and 9 parts of blood. The tubes are centrifuged to obtain platelet poor plasma. The plasma is used for determination of thrombin time or ecarin clotting time (ECT) as described below.
The citrated rat plasma, 100 ? L, is diluted with a saline solution, 0.9%, 100 ? […] The clotting time is measured in an automatic device (KC 10, Amelung, Germany). […]
Based on the estimated plasma concentrations of the active thrombin inhibitor (which assumes that thrombin time or ECT prolongation is caused by the aforementioned compound) in the rat, the area under the curve after oral and/or parenteral administration of the corresponding prodrug compound of formula I is calculated (AUCpd) using the trapezoidal rule and extrapolation of data to infinity.
The bioavailability of the active thrombin inhibitor after oral or parenteral administration of the prodrug is calculated as below: […]

Usually IC50 stands for the concentration that gives 50% inhibition. On Human thrombin, `COc1cc(Cl)cc2c1[S+]([O-])CCC2(O)C(=O)N1CCC1C(=O)NCc1ccc(C(=N)N)cc1` (single isomer, unassigned) [Example 8, 6-Chloro-4-(R)-hydroxy-8-methoxy-1-(R or S)-oxo-thiochromane-4-yl-C(O)-Aze-PabxTFA] displayed an IC50 of less than 50 nM.

Molecule `COc1cc(Cl)cc2c1S(=O)(=O)CC[C@]2(O)C(=O)N1CC[C@H]1C(=O)NCc1ccc(C(=N)N)cc1` [Example 1, (R)-6-Chloro-4-hydroxy-8-methoxy-1,1-dioxothiochromane-4-yl-C(O)-Aze-Pab] showed a concentration for half-maximal inhibition (IC50) on Human thrombin of less than 50 nM.

Turning to `N=C(N)c1ccc(CNC(=O)[C@@H]2CCN2C(=O)[C@@]2(O)CCS(=O)(=O)c3ccc(Cl)cc32)cc1` [Example 3, (R)-6-Chloro-4-hydroxy-1,1-dioxothiochromane-4-yl-C(O)-Aze-Pab], the half-inhibitory concentration (IC50) on Human thrombin is less than 50 nM.

Consider `COc1cc(Cl)cc2c1S(=O)(=O)CC[C@]2(O)C(=O)N1CC[C@H]1C(=O)NCc1ccc(C(N)=NOCc2ccccc2)cc1` [Example 4, (R)-6-Chloro-4-hydroxy-8-methoxy-1,1-dioxothiochromane-4-yl-C(O)-Aze-Pab(OBn)], for which the “oral and/or parenteral bioavailability as the corresponding active inhibitor (free amidine)” value in data set [1] is “exhibit oral and/or parenteral bioavailability in the rat as the corresponding active inhibitor (free amidine)”.

In the case of `COc1cc(Cl)cc2c1S(=O)(=O)CC[C@]2(O)C(=O)N1CC[C@H]1C(=O)NCc1ccc(C(N)=NC(=O)OC2CCCC2)cc1` [Example 5, (R)-6-Chloro-4-hydroxy-8-methoxy-1,1-dioxothiochromane-4-yl-C(O)-Aze-Pab(C(O)-O-cyclopentyl)], the “oral and/or parenteral bioavailability as the corresponding active inhibitor (free amidine)” value in data set [1] is given as “exhibit oral and/or parenteral bioavailability in the rat as the corresponding active inhibitor (free amidine)”.

In the case of `CON=C(N)c1ccc(CNC(=O)[C@@H]2CCN2C(=O)[C@@]2(O)CCS(=O)(=O)c3c(Cl)cc(Cl)cc32)cc1` [Example 6, (R)-6,8-Dichloro-4-hydroxy-1,1-dioxothiochromane-4-yl-C(O)-Aze-Pab(OMe)], the “oral and/or parenteral bioavailability as the corresponding active inhibitor (free amidine)” value in data set [2] and in data set [1] (Test G as printed) was “exhibit oral and/or parenteral bioavailability in the rat as the corresponding active inhibitor (free amidine)” throughout.

Regarding `N=C(N)c1ccc(CNC(=O)C2CCN2C(=O)C2(O)CCS(=O)(=O)c3c(OC(F)F)cc(Cl)cc32)cc1` (centres unmarked) [Example 7, 6-Chloro-8-difluoromethoxy-4-hydroxy-1,1-dioxothiochromane-4-yl-C(O)-Aze-Pab], at Human thrombin, the IC50 is less than 50 nM.
